Results reported in patent publication US8492387B2, “2-aminoimidazole beta-secretase inhibitors for the treatment of alzheimer's disease” (Merck, Sharp & Dohme, Corp., priority 2008, dated 2013).

These molecules were tested against BACE 1 (beta-secretase enzyme) (Homo sapiens (Human), UniProt P56817) (assay: ECL Assay (homogeneous end point electrochemiluminescence assay with biotinylated BACE substrate)). Details: soluble human enzyme, pH 6.5, rt.
Sequence of BACE 1 (beta-secretase enzyme) (P56817 46-457): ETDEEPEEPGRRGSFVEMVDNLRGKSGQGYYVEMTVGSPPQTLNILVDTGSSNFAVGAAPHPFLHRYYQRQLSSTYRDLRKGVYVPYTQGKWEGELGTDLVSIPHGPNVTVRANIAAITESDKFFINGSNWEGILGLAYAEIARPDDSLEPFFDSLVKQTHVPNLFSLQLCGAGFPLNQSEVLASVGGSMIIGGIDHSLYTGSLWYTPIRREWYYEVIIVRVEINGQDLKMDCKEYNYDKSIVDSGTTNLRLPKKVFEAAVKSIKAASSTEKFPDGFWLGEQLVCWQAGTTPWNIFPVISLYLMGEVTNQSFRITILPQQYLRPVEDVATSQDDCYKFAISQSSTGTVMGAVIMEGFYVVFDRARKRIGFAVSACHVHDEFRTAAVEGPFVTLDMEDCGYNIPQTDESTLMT
Assay type: biochemical
Description: Enzyme inhibition is determined as follows.
ECL Assay: A homogeneous end point electrochemiluminescence (ECL) assay is performed using a biotinylated BACE substrate. The Km of the substrate is approximated at 50 μM. A typical reaction contains approximately 0.6 nM enzyme, 0.25 μM of the substrate, and buffer (50 mM Pipes, pH 6.5, 0.1 mg/ml BSA, 0.2% CHAPS, 15 mM EDTA and 1 mM deferoxamine) in a total reaction volume of 100 μl. The reaction proceeds for 1-2 hrs and is then stopped by the addition of 150 μL of a quench cocktail solution ([…], pH 8.0, 50 μL INC buffer (2% BSA, 0.2% Tween-20 and 0.05% sodium azide diluted in phosphate buffered saline (PBS) plus 75 μL, PBS), containing streptavadin coated magnetic beads and ruthenylated antibody which specifically recognizes the C-terminal residue of the product. The samples are subjected to M-384 (Igen Inc., Gaithersburg, Md.) analysis. Under these conditions, less than 10% of substrate is processed by BACE 1. The enzyme used in these studies is soluble (transmembrane domain and cytoplasmic extension excluded) human protein produced in a baculovirus expression system. To measure the inhibitory potency for compounds, 10 concentrations of inhibitors are prepared starting from 200 μM with three fold series dilution. Solutions of the inhibitor in DMSO are included in the reaction mixture (final DMSO concentration is 10%). All experiments are conducted at rt using the standard reaction conditions described above. To determine the IC50 of the compound, a four parameter equation is used for curve fitting. The errors in reproducing the dissociation constants are typically less than two-fold.
COc1ccc([C@H](Cc2ccc(C(F)(F)F)cc2)c2nc(N)[nH]c2C(O)c2ccccc2)cc1 (stereo partly drawn) [Example 2, (2-amino-4-{(1S)-1-(4-methoxyphenyl)-2-[4-(trifluoromethyl)phenyl]ethyl}-1H-imidazole-5-yl) (phenyl)methanol] showed an IC50 of 5 µM.
Cn1cc(C2(Cc3ccccc3)CCc3ccccc32)nc1N (centres unmarked) [Example 3, 4-(1-benzyl-2,3-dihydro-1H-inden-1-yl)-1-methyl-1H-imidazol-2-amine] was tested, and the IC50 was 12 µM.
For COc1ccc(C(Cc2cccc(-c3ccc(C(F)(F)F)cc3Cl)c2)c2cn(C)c(N)n2)cc1 (centres unmarked) [Example 34, 4-[2-[2′-chloro-4′-(trifluoromethyl)biphenyl-3-yl]-1-(4-methoxyphenyl)ethyl]-1-methyl-1H-imidazol-2-amine], the IC50 was 11 µM.
Molecule COc1ccc(C2(c3cn(C)c(N)n3)CCCCC2)cc1 [Example 41, 4-[1-(4-methoxyphenyl)cyclohexyl]-1-methyl-1H-imidazol-2-amine] has an IC50 of 27 µM.
Molecule COc1ccc(C(Cc2ccc(-c3ccc(O)nc3)cc2)c2cn(C)c(N)n2)cc1 (centres unmarked) [Example 55, 5-{4-[2-(2-amino-1-methyl-1H-imidazol-4-yl)-2-(4-methoxyphenyl)ethyl]phenyl}pyridin-2-ol] has an IC50 of 17 µM.
With COc1ccc2c(c1)CCC2(Cc1cc([N+](=O)[O-])ccc1OC)c1cn(C)c(N)n1 (centres unmarked) [Example 111, 4-[5-methoxy-1-(2-methoxy-5-nitrobenzyl)-2,3-dihydro-1H-inden-1-yl]-1-methyl-1H-imidazol-2-amine] the IC50 was 3.2 µM.
COc1ccc2c(c1)CCC2(Cc1ccc(C(F)(F)F)nc1)c1cn(Cc2ccccc2)c(N)n1 (centres unmarked) [Example 114, 1-benzyl-4-(5-methoxy-1-{[6-(trifluoromethyl)pyridin-3-yl]methyl}-2,3-dihydro-1H-inden-1-yl)-1H-imidazol-2-amine] showed an IC50 of 0.063 µM.
COc1ccc2c(c1)CCC2(Cc1ccc(C(F)(F)F)nc1)c1cn(CCCO)c(N)n1 (centres unmarked) [Example 115, 3-[2-amino-4-(5-methoxy-1-{[6-(trifluoromethyl)pyridin-3-yl]methyl}-2,3-dihydro-1H-inden-1-yl)-1H-imidazol-1-yl]propan-1-ol] was tested, and the IC50 was 3.3 µM.
